As a reminder, the melting point is the temperature of the solid-liquid transition. For orientation: Ki means the dissociation constant of the complex between target and ligand, obtained from inhibition or displacement.

Structures are written as SMILES.

Chain of human PDE10A2 (Q9Y233 267-1055): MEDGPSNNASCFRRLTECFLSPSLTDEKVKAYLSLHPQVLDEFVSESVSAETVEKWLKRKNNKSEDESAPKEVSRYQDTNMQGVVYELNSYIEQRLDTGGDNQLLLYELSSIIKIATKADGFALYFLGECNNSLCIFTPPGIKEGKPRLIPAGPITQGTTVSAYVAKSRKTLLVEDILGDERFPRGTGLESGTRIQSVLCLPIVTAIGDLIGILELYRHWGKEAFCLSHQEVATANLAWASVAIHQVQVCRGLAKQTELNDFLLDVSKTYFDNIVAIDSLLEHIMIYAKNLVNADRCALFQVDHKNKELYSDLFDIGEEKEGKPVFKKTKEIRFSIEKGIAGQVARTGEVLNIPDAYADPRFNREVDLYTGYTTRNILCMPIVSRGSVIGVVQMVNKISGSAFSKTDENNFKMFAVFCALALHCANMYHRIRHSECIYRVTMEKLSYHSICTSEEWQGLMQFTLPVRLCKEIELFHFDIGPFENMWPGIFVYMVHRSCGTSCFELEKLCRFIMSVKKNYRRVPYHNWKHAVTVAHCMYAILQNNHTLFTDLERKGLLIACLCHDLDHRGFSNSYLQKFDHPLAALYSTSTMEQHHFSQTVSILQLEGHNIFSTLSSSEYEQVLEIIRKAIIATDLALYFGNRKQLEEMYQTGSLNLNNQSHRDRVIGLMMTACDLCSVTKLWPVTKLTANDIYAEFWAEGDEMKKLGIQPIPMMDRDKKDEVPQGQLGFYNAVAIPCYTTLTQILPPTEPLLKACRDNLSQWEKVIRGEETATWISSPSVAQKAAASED

System in one series: not given
Assay: not given
Conditions: not given
For `Cc1nc(C)n(-c2cc([C@H]3C[C@@H]3c3nc4ccccc4n3C)nc(OC(C)C)n2)n1` (relative stereo) [Cpd 113, trans-2-{2-[6-(3,5-dimethyl-1H-1,2,4-triazol-1-yl)-2-(1-methylethoxy)pyrimidin-4-yl]cyclopropyl}-1-methyl-1H-benzimidazole], the melting point fell in the range of 133 to 135 °C.

In turn, `Cc1nc(C)n(-c2cc([C@H]3C[C@@H]3c3nc4ccccc4n3C)nc(N(C)C)n2)n1` (relative stereo) [Cpd 114, trans-4-(3,5-dimethyl-1H-1,2,4-triazol-1-yl)-N,N-dimethyl-6-[2-(1-methyl-1H-benzimidazol-2-yl)cyclopropyl]pyrimidin-2-amine] had a melting point of 164 to 165 °C.

For `Cc1nc(C)n(-c2cc([C@H]3C[C@@H]3c3nc4ccccc4n3C)nc(N3CCCC3)n2)n1` (relative stereo) [Cpd 116, trans-2-{2-[6-(3,5-dimethyl-1H-1,2,4-triazol-1-yl)-2-pyrrolidin-1-ylpyrimidin-4-yl]cyclopropyl}-1-methyl-1H-benzimidazole], the melting point lay within 180 to 185 °C.

`Cc1nc(C)n(-c2cc([C@H]3C[C@@H]3c3nc4ccccc4n3C)nc(N3CCOCC3)n2)n1` (relative stereo) [Cpd 117, trans-2-{2-[6-(3,5-dimethyl-1H-1,2,4-triazol-1-yl)-2-morpholin-4-ylpyrimidin-4-yl]cyclopropyl}-1-methyl-1H-benzimidazole] displayed a melting point of 226 to 228 °C.

With `Cc1nc(C)n(-c2cc([C@H]3C[C@@H]3c3nc4ccccc4n3C)nc(C(N)=O)n2)n1` (relative stereo) [Cpd 130, trans-4-(3,5-dimethyl-1H-1,2,4-triazol-1-yl)-6-[2-(1-methyl-1H-benzimidazol-2-yl)cyclopropyl]pyrimidine-2-carboxamide], the melting point was in the range of 119 to 121 °C.

In turn, `CNc1nc([C@H]2C[C@@H]2c2nc3ccccc3n2C)cc(-n2nc(C)nc2C)n1` (relative stereo) [Example 3, trans-4-(3,5-dimethyl-1H-1,2,4-triazol-1-yl)-N-methyl-6-(2-(1-methyl-1H-benzo[d]imidazol-2-yl)cyclopropyl)pyrimidin-2-amine] returned a melting point of 212 to 214 °C.

As to `CCOc1nc([C@@H]2C[C@H]2c2nc3ccccc3n2C)cc(-n2nc(C)nc2C)n1` (relative stereo) [Example 14, trans-2-(2-(6-(3,5-dimethyl-1H-1,2,4-triazol-1-yl)-2-ethoxypyrimidin-4-yl)cyclopropyl)-1-methyl-1H-benzo[d]imidazole], the melting point fell in the range of 82 to 83 °C.

For the compound `Cc1nc(C)n(-c2cc([C@@H]3C[C@H]3c3nc4ccccc4n3C)nc(C#N)n2)n1` (relative stereo) [Example 21, trans-4-(3,5-dimethyl-1H-1,2,4-triazol-1-yl)-6-(2-(1-methyl-1H-benzo[d]imidazol-2-yl)cyclopropyl)pyrimidine-2-carbonitrile], the melting point lay in the range of 229 to 231 °C.

Another series concerns the target human PDE10A2 (Homo sapiens (Human), UniProt Q9Y233). As to the kind of experiment: PDE10 fluorescence polarization (IMAP FP) inhibition assay. In kind it is biochemical. The settings on record: FAM-labeled cAMP 50 nM, room temperature, read-out: PDE10a Ki. In a few lines:
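Cytoplasmic lysate of AD293 cells transiently expressing human PDE10A2, incubated 30 minutes at room temperature with 50 nM FAM-labeled cAMP in Tris pH 7.2 with MgCl2. Read by IMAP fluorescence polarization; 0% inhibition set by 1% DMSO, 100% by a reference PDE10 inhibitor.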
In general terms: Fluorescence polarisation rises when a labelled molecule tumbles more slowly, as on binding a larger partner.
As to `Cc1nc(C)n(-c2cc([C@H]3C[C@@H]3c3nc4ccccc4n3C)nc(OC(C)C)n2)n1` (relative stereo) [Cpd 113, trans-2-{2-[6-(3,5-dimethyl-1H-1,2,4-triazol-1-yl)-2-(1-methylethoxy)pyrimidin-4-yl]cyclopropyl}-1-methyl-1H-benzimidazole], the Ki came to 0.62 nM.

As for `Cc1nc(C)n(-c2cc([C@H]3C[C@@H]3c3nc4ccccc4n3C)nc(N(C)C)n2)n1` (relative stereo) [Cpd 114, trans-4-(3,5-dimethyl-1H-1,2,4-triazol-1-yl)-N,N-dimethyl-6-[2-(1-methyl-1H-benzimidazol-2-yl)cyclopropyl]pyrimidin-2-amine], the inhibitory constant (Ki) turned out to be 1.2 nM.

On to `Cc1nc(C)n(-c2cc([C@H]3C[C@@H]3c3nc4ccccc4n3C)nc(N3CCCC3)n2)n1` (relative stereo) [Cpd 116, trans-2-{2-[6-(3,5-dimethyl-1H-1,2,4-triazol-1-yl)-2-pyrrolidin-1-ylpyrimidin-4-yl]cyclopropyl}-1-methyl-1H-benzimidazole], for which the inhibition constant Ki worked out at 1.2 nM.

For the compound `Cc1nc(C)n(-c2cc([C@H]3C[C@@H]3c3nc4ccccc4n3C)nc(C(N)=O)n2)n1` (relative stereo) [Cpd 130, trans-4-(3,5-dimethyl-1H-1,2,4-triazol-1-yl)-6-[2-(1-methyl-1H-benzimidazol-2-yl)cyclopropyl]pyrimidine-2-carboxamide], the Ki was 1.6 nM.

As for `Cc1nc([C@H]2C[C@@H]2c2nc3ccccc3n2CCF)cc(-n2nc(C)nc2C)n1` [Cpd 102, 2-{(1S,2S)-2-[6-(3,5-dimethyl-1H-1,2,4-triazol-1-yl)-2-methylpyrimidin-4-yl]cyclopropyl}-1-(2-fluoroethyl)-1H-benzimidazole], the inhibition constant (Ki) is above 75 nM.

For `Cc1nc([C@H]2C[C@@H]2c2nc3ccccc3n2CCF)cc(-n2nc(C)nc2C)n1` [Cpd 103, 2-{(1S,2S)-2-[6-(3,5-dimethyl-1H-1,2,4-triazol-1-yl)-2-methylpyrimidin-4-yl]cyclopropyl}-1-(2-fluoroethyl)-1H-benzimidazole], the Ki was found to be 2.9 nM.

Regarding `Cc1nc([C@H]2C[C@@H]2c2nc3ccccc3s2)cc(-n2nc(C)nc2C)n1` [Cpd 104, 2-{(1S,2S)-2-[6-(3,5-dimethyl-1H-1,2,4-triazol-1-yl)-2-methylpyrimidin-4-yl]cyclopropyl}-1,3-benzothiazole], the inhibitory constant (Ki) amounted to 69.5 nM.

On to `Cc1nc([C@H]2C[C@@H]2c2nnc(-c3ccn(C)n3)s2)cc(-n2nc(C)nc2C)n1` [Cpd 105, 4-(3,5-dimethyl-1H-1,2,4-triazol-1-yl)-2-methyl-6-{(1S,2S)-2-[5-(1-methyl-1H-pyrazol-3-yl)-1,3,4-thiadiazol-2-yl]cyclopropyl}pyrimidine], for which the inhibition constant Ki was above 75 nM.

`CCc1nc(CC)n(-c2cc([C@@H]3C[C@H]3c3nc4ccccc4n3C)nc(C)n2)n1` [Cpd 106, 2-{(1R,2R)-2-[6-(3,5-diethyl-1H-1,2,4-triazol-1-yl)-2-methylpyrimidin-4-yl]cyclopropyl}-1-methyl-1H-benzimidazole]: the Ki came to 2.8 nM.

Consider `Cc1nc([C@@H]2C[C@H]2c2cc3n(n2)CCCC3)cc(-n2nc(C)nc2C)n1` [Cpd 107, 2-{(1R,2R)-2-[6-(3,5-dimethyl-1H-1,2,4-triazol-1-yl)-2-methylpyrimidin-4-yl]cyclopropyl}-4,5,6,7-tetrahydropyrazolo[1,5-a]pyridine], for which the inhibitory constant (Ki) was 60.7 nM.

Consider `Cc1nc(C)n(-c2cc([C@@H]3C[C@H]3c3nc4ccccc4n3C)nc(C(C)(C)O)n2)n1` [Cpd 131, 2-(4-(3,5-dimethyl-1H-1,2,4-triazol-1-yl)-6-((1R,2R)-2-(1-methyl-1H-benzo[d]imidazol-2-yl)cyclopropyl)pyrimidin-2-yl)propan-2-ol], for which the Ki was found to be 0.88 nM.

As for `Cc1nc(C)n(-c2cc([C@@H]3C[C@H]3c3nc4ccccc4n3C)nc(N3CC(F)(F)C3)n2)n1` [Cpd 132, 2-((1R,2R)-2-(2-(3,3-difluoroazetidin-1-yl)-6-(3,5-dimethyl-1H-1,2,4-triazol-1-yl)pyrimidin-4-yl)cyclopropyl)-1-methyl-1H-benzo[d]imidazole], the inhibition constant (Ki) turned out to be 0.75 nM.

Turning to `Cc1nc(C)n(-c2cc([C@@H]3C[C@H]3c3nc4ccccc4n3C)nc(N3CCC[C@H]3C)n2)n1` [Cpd 133, 2-((1R,2R)-2-(6-(3,5-dimethyl-1H-1,2,4-triazol-1-yl)-2-((R)-2-methylpyrrolidin-1-yl)pyrimidin-4-yl)cyclopropyl)-1-methyl-1H-benzo[d]imidazole], the Ki is 0.37 nM.

With `Cc1nc(C)n(-c2cc([C@@H]3C[C@H]3c3nc4ccccc4n3C)nc(N3CC[C@@H](F)C3)n2)n1` [Cpd 134, 2-((1R,2R)-2-(6-(3,5-dimethyl-1H-1,2,4-triazol-1-yl)-2-((R)-3-fluoropyrrolidin-1-yl)pyrimidin-4-yl)cyclopropyl)-1-methyl-1H-benzo[d]imidazole], the Ki was 0.58 nM.

Consider `Cc1nc(C)n(-c2cc([C@@H]3C[C@H]3c3nc4ccccc4n3C)nc(N3CC(C)(O)C3)n2)n1` [Cpd 135, 1-(4-(3,5-dimethyl-1H-1,2,4-triazol-1-yl)-6-((1R,2R)-2-(1-methyl-1H-benzo[d]imidazol-2-yl)cyclopropyl)pyrimidin-2-yl)-3-methylazetidin-3-ol], for which the Ki amounted to 1.1 nM.

For `Cc1nc(C)n(-c2cc([C@@H]3C[C@H]3c3nc4ccccc4n3C)nc(OC3CCC3)n2)n1` [Cpd 136, 2-((1R,2R)-2-(2-cyclobutoxy-6-(3,5-dimethyl-1H-1,2,4-triazol-1-yl)pyrimidin-4-yl)cyclopropyl)-1-methyl-1H-benzo[d]imidazole], the inhibition constant (Ki) is 0.42 nM.

For `Cc1nc(C)n(-c2cc([C@@H]3C[C@H]3c3nc4ccccc4n3C)nc(OCC3(C)CC3)n2)n1` [Cpd 137, 2-((1R,2R)-2-(6-(3,5-dimethyl-1H-1,2,4-triazol-1-yl)-2-((1-methylcyclopropyl)methoxy)pyrimidin-4-yl)cyclopropyl)-1-methyl-1H-benzo[d]imidazole], the inhibition constant (Ki) was 0.84 nM.

With `Cc1nc(C)n(-c2cc([C@@H]3C[C@H]3c3nc4ccccc4n3C)nc(OCC3CCO3)n2)n1` (stereo partly drawn) [Cpd 138, 2-((1R,2R)-2-(6-(3,5-dimethyl-1H-1,2,4-triazol-1-yl)-2-(oxetan-2-ylmethoxy)pyrimidin-4-yl)cyclopropyl)-1-methyl-1H-benzo[d]imidazole], the inhibition constant (Ki) was 1.3 nM.

Values taken from patent US9200001B2, “Triazolyl PDE10 inhibitors” (Merck Sharp & Dohme Corp., priority 2011, dated 2015).
